Results reported in patent US6855518B2, “Anti-listeria bacteriocin” (Rhodia Chimie, priority 2000, dated 2005).
Entries after “also recorded” stand apart in the source; their conditions may differ. Ends that are not written are not given here.

What was measured:
Listeria strains = assay: Inhibition spectrum, for Listeria; assay type: cell-based; details: all the Listeria strains tested
Experimental: (§1) • Bacterial strains and culture media. Lactobacillus sakei 2512 is cultured at 30° C. in MRS medium (DIFCO Laboratories) sterilised for 12 minutes at 110° C. The indicator strains are cultured in BHI medium (brain-heart infusion; DIFCO Laboratories) at 37° C. • Test of activity. BHI medium, supplemented with 10 g/l agar, is inoculated at 1% with a preculture of the indicator strain in stationary phase before being poured into a Petri dish. 50 microliters of sakacin G solution are placed in wells formed in cooled agar with a hole punch. The bacteriocin activity manifests itself in the appearance of inhibition zones around the wells after incubation overnight at 37° C. • Protein analysis. Sakacin G is analysed by mass spectrometry using a Perkin-Elmer Sciex API 165 device equipped with an Ionspray ionisation source. After lyophilisation, the active HPLC fraction is taken up in an acetonitrile/water solution (1:1) containing 0.1% formic acid, and then injected by infusion at a rate of 5 μl/minute.
(§2) The sakacin G sensitivity of 17 bacterial strains was tested by the well test method (see Materials and Methods).

E. faecium ENSAIA 631 = assay: Well test of bacteriocin activity (inhibition zones on agar); assay type: cell-based, Enterococcus faecium
Experimental: as §1, §2

Lb. sakei 2515 = assay: as above; assay type: cell-based, Lactobacillus sakei
Experimental: as §1, §2

P. cerevisiae IP 5492 = assay: as above; assay type: cell-based, Pediococcus cerevisiae
Experimental: as §1, §2

Lb. casei DSM 20011 = assay: as above; assay type: cell-based, Lactobacillus casei
Experimental: as §1, §2

Enterococcus faecalis = assay: Inhibition spectrum, Enterococcus faecalis; assay type: cell-based
Experimental: as §1, §2

L. ivanovi BUG 496 = assay: Well test of bacteriocin activity (inhibition zones on agar); assay type: cell-based, Listeria ivanovii
Experimental: as §1, §2

Lc. lactis ATCC11454 = assay: as above; assay type: cell-based; details: 50 microliters of sakacin G solution, BHI agar, overnight at 37° C.
Experimental: as §1, §2

[1] = system: Ln. Mesenteroides DSM 20240; assay: as above; assay type: cell-based; details: 50 microliters of sakacin G solution, BHI agar, overnight at 37° C.
Experimental: as §1, §2

[2] = system: Ln. Mesenteroides DSM 20484; assay: as above; assay type: cell-based; details: 50 microliters of sakacin G solution, BHI agar, overnight at 37° C.
Experimental: as §1, §2

[3] = system: P. acidilactici ENSAIA 583; assay: as above; assay type: cell-based; details: 50 microliters of sakacin G solution, BHI agar, overnight at 37° C.
Experimental: as §1, §2

[4] = system: Ln. Paramesenteroides DSM 20288; assay: as above; assay type: cell-based; details: 50 microliters of sakacin G solution, BHI agar, overnight at 37° C.
Experimental: as §1, §2

[5] = system: Lb. Delbrueckii DSM 20081; assay: as above; assay type: cell-based
Experimental: as §1, §2

L. inocua 8811 = assay: as above; assay type: cell-based; details: 50 microliters of sakacin G solution, BHI agar, overnight at 37° C.
Experimental: as §1, §2

E. faecalis IP 5430 = assay: as above; assay type: cell-based, Enterococcus faecalis; details: 50 microliters of sakacin G solution, BHI agar, overnight at 37° C.
Experimental: as §1, §2

E. faecalis ENSAIA 636 = assay: as above; assay type: cell-based, Enterococcus faecalis; details: 50 microliters of sakacin G solution, BHI agar, overnight at 37° C.
Experimental: as §1, §2

Lb brevis DSM 20054 = assay: as above; assay type: cell-based, Lactobacillus brevis
Experimental: as §1, §2

Lb. Plantarum DSM 20174 = assay: as above; assay type: cell-based, Lactobacillus plantarum
Experimental: as §1, §2

E. durans ENSAIA 630 = assay: as above; assay type: cell-based, Enterococcus durans
Experimental: as §1, §2

Substance: sakacin G: class IIa anti-Listeria bacteriocin polypeptide from Lactobacillus sakei 2512, about 3834 Da, two disulfide bridges; mature sequence SEQ ID NO: 12 (KYYGNGVSCNSHGCSVNWGQAWTCGVNHLANGGHGVC; disulfide (positions not given here))
- Bacteriocin activity (in words) (Listeria strains): especially effective; also recorded: active
- Bacteriocin activity (in words) (E. faecium ENSAIA 631; Enterococcus faecium): inactive; also recorded: not against Enterococcus faecium
- Radius of the inhibition halos (E. faecium ENSAIA 631; well test, 50 microliters of sakacin G solution, BHI agar, overnight at 37° C., E. faecium ENSAIA 631): 0 mm
- Bacteriocin activity (in words) (Lb. sakei 2515; strains of Lactobacillus sakei other than Lactobacillus sakei 2512): especially effective
- Radius of the inhibition halos (Lb. sakei 2515; well test, 50 microliters of sakacin G solution, BHI agar, overnight at 37° C., Lb. sakei 2515): 1 mm
- Bacteriocin activity (in words) (P. cerevisiae IP 5492; Pediococcus cerevisiae): especially effective
- Radius of the inhibition halos (P. cerevisiae IP 5492; well test, 50 microliters of sakacin G solution, BHI agar, overnight at 37° C., P. cerevisiae IP 5492): 1 mm
- Bacteriocin activity (in words) (Lb. casei DSM 20011; Lactobacillus casei): inactive
- Radius of the inhibition halos (Lb. casei DSM 20011; well test, 50 microliters of sakacin G solution, BHI agar, overnight at 37° C., Lb. casei DSM 20011): 0 mm
- Bacteriocin activity (in words) (Enterococcus faecalis): especially effective; also recorded: active
- Activity of the purified HPLC fraction (in words) (L. ivanovi BUG 496; HPLC fraction, peak at 23 minutes, Listeria ivanovii BUG 496): active
- Radius of the inhibition halos (L. ivanovi BUG 496; well test, 50 microliters of sakacin G solution, BHI agar, overnight at 37° C., L. ivanovi BUG 496): 6 mm
- Radius of the inhibition halos (Lc. lactis ATCC11454): 0 mm
- Radius of the inhibition halos [1]: 0 mm
- Radius of the inhibition halos [2]: 0 mm
- Radius of the inhibition halos [3]: 0 mm
- Radius of the inhibition halos [4]: 0 mm
- Bacteriocin activity (in words) ([5]; Lactobacillus debrueckii): inactive
- Radius of the inhibition halos ([5]; well test, 50 microliters of sakacin G solution, BHI agar, overnight at 37° C., Lb. Delbrueckii DSM 20081): 0 mm
- Radius of the inhibition halos (L. inocua 8811): 3 mm
- Radius of the inhibition halos (E. faecalis IP 5430): 2 mm
- Radius of the inhibition halos (E. faecalis ENSAIA 636): 1 mm
- Bacteriocin activity (in words) (Lb brevis DSM 20054; Lactobacillus brevis): inactive
- Radius of the inhibition halos (Lb brevis DSM 20054; well test, 50 microliters of sakacin G solution, BHI agar, overnight at 37° C., Lb brevis DSM 20054): 0 mm
- Bacteriocin activity (in words) (Lb. Plantarum DSM 20174; Lactobacillus plantarum): inactive
- Radius of the inhibition halos (Lb. Plantarum DSM 20174; well test, 50 microliters of sakacin G solution, BHI agar, overnight at 37° C., Lb. Plantarum DSM 20174): 0 mm
- Bacteriocin activity (in words) (E. durans ENSAIA 630; Enterococcus durans): especially effective; also recorded: active
- Radius of the inhibition halos (E. durans ENSAIA 630; well test, 50 microliters of sakacin G solution, BHI agar, overnight at 37° C., E. durans ENSAIA 630): 2 mm
